According to PMC6017536, “Synthesis and Smo Activity of Some Novel Benzamide Derivatives” (Molecules : A Journal of Synthetic Chemistry and Natural …, 2017):

What follows are compounds tested on Hh signaling pathway (Gli-luc reporter, NIH3T3 cells) (assay: NIH3T3-Gli-luciferase reporter assay (Gli-Luc dual luciferase)). Settings: Mus musculus; NIH3T3 cells transfected with Gli luciferase reporter, stimulated with 10 nM SAG, 24 h; average of triplicate separate determinations.
Assay type: cell-based, Mouse
Description: In the Hh signaling pathway activity test, we used the Gli-Luc double luciferase detection system, which is widely used to test the inhibitory activity of the Hh signaling pathway. […]
3.3.1. NIH3T3-Gli-Luciferase Reporter Assay
NIH3T3 cells (Chinese Academy of Sciences cell bank, Mouse embryonic fibroblast cell line) were grown in Dulbecco’s Modified Eagle Media (DMEM) media supplemented with 10% fetal bovine serum (FBS) at 37 °C with a humidified 5% CO2 atmosphere.
NIH3T3 cells were plated one day before transfection. To prepare NIH3T3 cells, enough cells were collected to complete the transfection experiment, and centrifuged for 5 min at 300× g. The cell pellet was resuspended to an appropriate concentration in DMEM media with 0.5% FBS, then 5000 cells were plated in 100 μL per well of a 96-well plate.
The NIH3T3 cells were transfected with the Glioma-associated oncogene (GLI)-reporter, negative control, and positive control constructs (QIAGEN, Cat# CCS-6030L) by using Fugene HD transfection reagents (Promega, Cat. No. E2311, Madison, WI). The FuGENER HD Transfection Reagent/DNA mixture was incubated for 15 min at room temperature. A total of 10 μL of the FuGENER HD Transfection Reagent/DNA mixture was added per well to the 96-well plate containing 100 μL cells in growth medium. The mixture was mixed gently using a plate shaker. Cells were returned to the incubator for 24–48 h. Transfection efficiency was estimated by observing green fluorescent protein (GFP) expression in the positive control wells by fluorescence microscopy.
[…] Cells were incubated with SAG and compounds for 24 h. To study the effect of test compounds, cells were harvested 24 h after treatment to perform the dual-luciferase assay.
Dual-Luciferase assays were conducted using the Dual-Luciferase® Assay System (Promega, Cat# E1910) according to Promega’s protocol. Each system included: 5X Passive Lysis Buffer (PLB), Luciferase Assay Buffer II, Luciferase Assay Substrate, and 50X Stop & Glo® Substrate and Stop & Glo® Buffer.
After 24 h treatment, the assay medium was removed and cells were washed with PBS buffer, and then 20 μL of 1XPLB was added to each well. The culture plates were incubated on a plate shaker with gentle shaking at room temperature for 15 min. A total of 100 μL LARII was added to each well, and the firefly luciferase luminescence signal was measured using an EnVision® 2104 Multilabel Reader (PerkinElmer, Waltham, MA, USA), with a measure time of 10s. A total of 100 μL Stop & Glo® Reagent was added to each well, and Renilla luciferase luminescence signal was measured using an EnVision® 2104 Multilabel Reader (PerkinElmer); the measure time was 10 s.
Relative Luciferase Units (RLU) Calculation
Firefly: Renilla activity ratios were generated from experimental and control transfections. Ratios from transcription factor-responsive reporter transfections were divided by ratios from negative control transfections to obtain relative luciferase units. […]
The histogram of % inhibition of compounds was generated by using GraphPad Prism 5.0 software (GraphPad Software Inc., La Jolla, CA, USA).

Compound	IC50 [µM]
CN1CCN(C(=O)C2CCN(c3cccc(NC(=O)c4ccccc4)c3)CC2)CC1 [Compound 5a, N-(3-(4-(4-Methylpiperazine-1-carbonyl)piperidin-1-yl)phenyl)benzamide]	28.52 ± 0.02
CN1CCN(C(=O)C2CCN(c3cccc(NC(=O)c4ccc(Cl)cc4)c3)CC2)CC1 [Compound 5b, 4-Chloro-N-(3-(4-(4-methylpiperazine-1-carbonyl)piperidin-1-yl)phenyl)benzamide]	12.47 ± 0.11
CN1CCN(C(=O)C2CCN(c3cccc(NC(=O)c4cccc(Cl)c4)c3)CC2)CC1 [Compound 5c, 3-Chloro-N-(3-(4-(4-methylpiperazine-1-carbonyl)piperidin-1-yl)phenyl)benzamide]	14.63 ± 0.01
CN1CCN(C(=O)C2CCN(c3cccc(NC(=O)c4ccc(F)cc4)c3)CC2)CC1 [Compound 5d, 4-Fluoro-N-(3-(4-(4-methylpiperazine-1-carbonyl)piperidin-1-yl)phenyl)benzamide]	15.51 ± 0.03
CN1CCN(C(=O)C2CCN(c3cccc(NC(=O)c4cccc(F)c4)c3)CC2)CC1 [Compound 5e, 3-Fluoro-N-(3-(4-(4-methylpiperazine-1-carbonyl)piperidin-1-yl)phenyl)benzamide]	17.59 ± 0.15
CN1CCN(C(=O)C2CCN(c3cccc(NC(=O)c4cccc([N+](=O)[O-])c4)c3)CC2)CC1 [Compound 5f, N-(3-(4-(4-methylpiperazine-1-carbonyl)piperidin-1-yl)phenyl)-3-nitrobenzamide]	53.34 ± 0.07
CN1CCN(C(=O)C2CCN(c3cccc(NC(=O)c4ccc([N+](=O)[O-])cc4)c3)CC2)CC1 [Compound 5g, N-(3-(4-(4-methylpiperazine-1-carbonyl)piperidin-1-yl)phenyl)-4-nitrobenzamide]	60.56 ± 0.04
CN1CCN(C(=O)C2CCN(c3cccc(NC(=O)c4ccc(Br)cc4)c3)CC2)CC1 [Compound 5h, 4-Bromo-N-(3-(4-(4-methylpiperazine-1-carbonyl)piperidin-1-yl)phenyl)benzamide]	7.85 ± 0.01
Cc1ccccc1C(=O)Nc1cccc(N2CCC(C(=O)N3CCN(C)CC3)CC2)c1 [Compound 5k, 2-Methyl-N-(3-(4-(4-methylpiperazine-1-carbonyl)piperidin-1-yl)phenyl)benzamide]	16.61 ± 0.12
COc1cc(OC)cc(C(=O)Nc2cccc(N3CCC(C(=O)N4CCN(C)CC4)CC3)c2)c1 [Compound 5l, 3,5-Dimethoxy-N-(3-(4-(4-methylpiperazine-1-carbonyl)piperidin-1-yl)phenyl)benzamide]	1.83 ± 0.03
CN1CCN(C(=O)C2CCN(c3cccc(NC(=O)c4ccccc4Br)c3)CC2)CC1 [Compound 5m, 2-Bromo-N-(3-(4-(4-methylpiperazine-1-carbonyl)piperidin-1-yl)phenyl)benzamide]	10.49 ± 0.05
CN1CCN(C(=O)C2CCN(c3cccc(NC(=O)c4cccnc4)c3)CC2)CC1 [Compound 5n, N-(3-(4-(4-methylpiperazine-1-carbonyl)piperidin-1-yl)phenyl)nicotinamide]	5.32 ± 0.13
CN1CCN(C(=O)C2CCN(c3cccc(NC(=O)c4ccc(S(C)(=O)=O)cc4Cl)c3)CC2)CC1 [Compound 5o, 2-Chloro-N-(3-(4-(4-methylpiperazine-1-carbonyl)piperidin-1-yl)phenyl)-4-(methylsulfonyl)benzamide]	4.28 ± 0.01
CN1CCN(C(=O)C2CCN(c3cccc(NC(=O)c4ccc(S(C)(=O)=O)cc4)c3)CC2)CC1 [Compound 5p, N-(3-(4-(4-methylpiperazine-1-carbonyl)piperidin-1-yl)phenyl)-4-(methylsulfonyl)benzamide]	3.43 ± 0.08
CN1CCN(C(=O)C2CCN(c3cccc(NC(=O)c4cccc(-c5ccccn5)c4)c3)CC2)CC1 [Compound 5q, N-(3-(4-(4-methylpiperazine-1-carbonyl)piperidin-1-yl)phenyl)-3-(pyridin-2-yl)benzamide]	1.26 ± 0.03
CS(=O)(=O)N1CCN(C(=O)Cc2ccc(Cl)c(NC(=O)c3ccc(Cl)cc3)c2)CC1 [Compound 8a, 4-Chloro-N-(2-chloro-5-(2-(4-(methylsulfonyl)piperazin-1-yl)-2-oxoethyl)phenyl)benzamide]	6.88 ± 0.13
O=C(Nc1cc(CC(=O)N2CCN(S(=O)(=O)c3ccc(F)cc3)CC2)ccc1Cl)c1ccc(Cl)cc1 [Compound 8b, 4-Chloro-N-(2-chloro-5-(2-(4-((4-fluorophenyl)sulfonyl)piperazin-1-yl)-2-oxoethyl)phenyl)benzamide]	12.7 ± 0.16
CCCCS(=O)(=O)N1CCN(C(=O)Cc2ccc(Cl)c(NC(=O)c3ccc(Cl)cc3)c2)CC1 [Compound 8c, N-(5-(2-(4-(butylsulfonyl)piperazin-1-yl)-2-oxoethyl)-2-chlorophenyl)-4-chlorobenzamide]	8.62 ± 0.09
COc1cc(C(=O)NC(=S)Nc2cccc(NC(=O)c3ccccc3)c2)cc(OC)c1OC [MRT10, reference compound]	2.15
CS(=O)(=O)c1ccc(C(=O)Nc2ccc(Cl)c(-c3ccccn3)c2)c(Cl)c1 [Vismodegib, reference compound]	0.025

Same assay, conditions: NIH3T3 cells transfected with Gli luciferase reporter, stimulated with 10 nM SAG, 24 h; average of triplicate separate determinations

Compound	IC50 [µM]
3-Methoxy-N-(3-(4-(4-methylpiperazine-1-carbonyl)piperidin-1-yl)phenyl)benzamide [Compound 5j]	4.74 ± 0.02
3-Methyl-N-(3-(4-(4-methylpiperazine-1-carbonyl)piperidin-1-yl)phenyl)benzamide [Compound 5i]	16.32 ± 0.05

These compounds were tested against T1, human Smo (Homo sapiens, UniProt Q99835) (assay: hSmo BODIPY-cyclopamine competitive binding assay). Settings: inhibition of BODIPY-cyclopamine fluorescence, competitive displacement, HEK 293 cells over-expressing human Smo; single IC50 determination; read-out: Smo-BCB IC50.
T1 construct: HA; expressed in transfected cells; host or cells: HEK293
T1 sequence (Q99835 28-787): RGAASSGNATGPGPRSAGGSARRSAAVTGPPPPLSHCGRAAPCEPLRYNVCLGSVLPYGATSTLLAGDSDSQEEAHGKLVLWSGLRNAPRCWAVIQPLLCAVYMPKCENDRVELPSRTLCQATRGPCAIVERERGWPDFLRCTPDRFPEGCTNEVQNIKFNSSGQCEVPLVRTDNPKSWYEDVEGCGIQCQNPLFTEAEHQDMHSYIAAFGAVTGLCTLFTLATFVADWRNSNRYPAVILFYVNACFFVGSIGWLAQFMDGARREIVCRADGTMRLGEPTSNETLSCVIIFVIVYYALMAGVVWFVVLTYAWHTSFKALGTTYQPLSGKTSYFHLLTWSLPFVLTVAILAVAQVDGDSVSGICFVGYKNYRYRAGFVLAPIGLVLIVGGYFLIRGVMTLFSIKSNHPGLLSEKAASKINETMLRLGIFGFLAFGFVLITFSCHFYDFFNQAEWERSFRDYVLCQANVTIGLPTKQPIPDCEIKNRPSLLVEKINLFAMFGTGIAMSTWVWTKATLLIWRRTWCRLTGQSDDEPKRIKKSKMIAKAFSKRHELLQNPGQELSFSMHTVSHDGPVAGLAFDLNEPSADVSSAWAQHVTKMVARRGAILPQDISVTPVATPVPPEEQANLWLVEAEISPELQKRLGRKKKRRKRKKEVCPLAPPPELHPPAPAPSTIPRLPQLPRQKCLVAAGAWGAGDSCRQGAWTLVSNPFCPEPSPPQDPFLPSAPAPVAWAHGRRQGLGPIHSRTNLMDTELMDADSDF
Description: To determine whether the Hh inhibitory activities of the target compounds were derived from their inhibition to the Smo receptor, a binding assay was used.
3.3.2. Hsmo-BC Binding Assay
BODIPY-cyclopamine binding assay is a fluorescence-based assay used to analyze the binding of Smo agonists/antagonists. HEK293 cells were transfected with pCMV-HA/hSmo using Lipofectamine reagent (Lipofectamine™ 2000, Invitrogen, Carlsbad, CA, USA). Briefly, 50 μL of Lipofectamine 2000 and 22.5 μg of pCMV-HA/hSmo were each incubated in 1.5 mL of Opti-MEMI media (Invitrogen) at room temperature for 30 min and then was added to 1 × 10^6 HeK293 cells in 25 mL of culture medium in a 75 cm^2 cell culture flask. After overnight incubation under 5% CO2 at 37 °C, cells were detached using Versene (Invitrogen) and resuspended in culture medium. The suspended cells were added to a 96-well plate at 10,000 cells/well. After removing the media from each well, the cells were fixed with 4% paraformaldehyde (PFA) for 20 min at room temperature. Then the PFA buffer was removed, and the cells were incubated with 4′,6-diamidino-2-phenylindole (DAPI) ([…]) for 10 min, followed by washing with PBS four times. […] After incubation, the cells were washed five times with PBST (PBS buffer supplied with 0.05% Tween-20). The fluorescence images were automatically captured and analyzed by a high content fluorescence imaging system (Arrayscan VTI, Thermo, Waltham, MA, USA). Data was expressed as a percentage of fluorescence intensity observed with BODIPY-cyclopamine alone. […] IC50 values were calculated with GraphPad Prism software using the sigmoidal dose-response function.

IC50 [µM]	Compound
2.41 ± 0.01	COc1cc(OC)cc(C(=O)Nc2cccc(N3CCC(C(=O)N4CCN(C)CC4)CC3)c2)c1 [Compound 5l, 3,5-Dimethoxy-N-(3-(4-(4-methylpiperazine-1-carbonyl)piperidin-1-yl)phenyl)benzamide]
6.35 ± 0.07	CN1CCN(C(=O)C2CCN(c3cccc(NC(=O)c4cccnc4)c3)CC2)CC1 [Compound 5n, N-(3-(4-(4-methylpiperazine-1-carbonyl)piperidin-1-yl)phenyl)nicotinamide]
6.23 ± 0.12	CN1CCN(C(=O)C2CCN(c3cccc(NC(=O)c4ccc(S(C)(=O)=O)cc4Cl)c3)CC2)CC1 [Compound 5o, 2-Chloro-N-(3-(4-(4-methylpiperazine-1-carbonyl)piperidin-1-yl)phenyl)-4-(methylsulfonyl)benzamide]
1.61 ± 0.02	CN1CCN(C(=O)C2CCN(c3cccc(NC(=O)c4cccc(-c5ccccn5)c4)c3)CC2)CC1 [Compound 5q, N-(3-(4-(4-methylpiperazine-1-carbonyl)piperidin-1-yl)phenyl)-3-(pyridin-2-yl)benzamide]
